From patent US20240067632A1, “WEE1 Degrading Compounds and Uses Thereof” (Bristol-Myers Squibb Company, priority 2022, published 2024)
Read-outs that look alike come from different tables or passages of the source.

Tests used:
[1] = tested on: MKN45 cells; assay: MKN45 cell proliferation assay (Cell-Titer-Glo, 120 h); assay type: cell-based; conditions: for EC50: Homo sapiens, MKN-45, 120 h, Cell-Titer-Glo, read-out: MKN45 Cell Prolif. 120 hr (EC50); for MKN45 Cell Prolif. 120 hr (Ymin-Obs): minimal percent of DMSO control observed in the concentrations tested
Method in brief: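 Cells seeded at 400/well onto pre-printed 10-point half-log dilutions (top 1 or 10 uM, 0.1% DMSO final), in triplicate, and grown 120 h at 37 C. Viability by Cell-Titer-Glo luminescence, blank-subtracted and normalised to DMSO; EC50 from four-parameter logistic fit, with observed minimal % of control recorded as Ymin-obs.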

[2] = target: T1, WEE1 (Homo sapiens, UniProt P30291+Q96SW2); assay: WEE1-ePL degradation assay (LentiX-WEE1-ePL-GSPT1-ND cells, InCELL Hunter luminescence, 4 h); assay type: cell-based; conditions: 293T-LentiX WEE1-ePL cells; for DC50: read-out: 293T-LentiX WEE1-ePL Degradation 4 hr (EC50)
T1 construct: C-terminal ePL-tagged (DiscoverX, Fremont, CA) full-length WEE1 expression construct; expressed in transfected cells; host or cells: LentiX-HEK293T (Invitrogen), lentiviral transduction; co-expressing GSPT1-GN (G576N, lacking the first 158 amino acids)
Method in brief: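 Luminescent readout (InCELL Hunter, 30 min RT) of WEE1-ePL levels in transduced HEK293T cells after 4 h compound exposure at 37 °C. Dosing: 10 points, 3-fold steps, top 1 uM or 10 uM. EC50 from four-parameter logistic fit; Ymax set by DMSO.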

[3] = lower limit of the fit (0 = luciferase inhibitor, Ymax = DMSO control)
[4] = lower limit of the fit (Ymin=0 luciferase inhibitor, Ymax DMSO control)

EC50 ([1]; growth inhibition) | 293T-LentiX WEE1-ePL Degradation 4 hr (Ymin) [2, 3] | DC50 [2] | EC50 [1] | 293T-LentiX WEE1-ePL Degradation 4 hr (Ymin) [2, 4] | Structure (SMILES) | MKN45 Cell Prolif. 120 hr (Ymin-Obs) [1]
2.68 nM | 35.5 | 2.59 nM | – | – | O=C1CC[C@H](N2Cc3cc(O[C@H]4CCN(Cc5ccc6nc([C@H]7CCOC7)ccc6c5)C4)ccc3C2=O)C(=O)N1 [(3S)-3-(1-oxo-5-{[(3S)-1-({2-[(3R)-oxolan-3-yl]quinolin-6-yl}methyl)pyrrolidin-3-yl]oxy}-2,3-dihydro-1H-isoindol-2-yl)piperidine-2,6-dione] | 8.547
4.09 nM | 30 | 2.13 nM | – | – | O=C1CC[C@H](N2Cc3cc(O[C@H]4CCN(Cc5ccc6nc([C@@H]7CCOC7)ccc6c5)C4)ccc3C2=O)C(=O)N1 [(3S)-3-(1-oxo-5-{[(3S)-1-({2-[(3S)-oxolan-3-yl]quinolin-6-yl}methyl)pyrrolidin-3-yl]oxy}-2,3-dihydro-1H-isoindol-2-yl)piperidine-2,6-dione] | 9.489
31.4 nM | 26.52 | 7.42 nM | – | – | O=C1CC[C@H](N2Cc3cc(O[C@H]4CCN(Cc5ccc6ncccc6c5)C4)ccc3C2=O)C(=O)N1 [(3S)-3-(1-oxo-5-{[(3S)-1-[(quinolin-6-yl)methyl]pyrrolidin-3-yl]oxy}-2,3-dihydro-1H-isoindol-2-yl)piperidine-2,6-dione] | 12.265
2.82 nM | 40 | 1.51 nM | – | – | O=C1CC[C@H](N2Cc3cc(O[C@H]4CCN(Cc5ccc6nc(N7CCCC7=O)ccc6c5)C4)ccc3C2=O)C(=O)N1 [(3S)-3-(1-oxo-5-{[(3S)-1-{[2-(2-oxopyrrolidin-1-yl)quinolin-6-yl]methyl}pyrrolidin-3-yl]oxy}-2,3-dihydro-1H-isoindol-2-yl)piperidine-2,6-dione] | 8.56
– | – | 6.04 nM | 26.9 nM | 43.18 | O=C1CC[C@H](N2Cc3cc(O[C@H]4CCN(Cc5ccc6nc(N7CCCC7)ncc6c5)C4)ccc3C2=O)C(=O)N1 [(3S)-3-(1-oxo-5-{[(3S)-1-{[2-(pyrrolidin-1-yl)quinazolin-6-yl]methyl}pyrrolidin-3-yl]oxy}-2,3-dihydro-1H-isoindol-2-yl)piperidine-2,6-dione] | 21.92
– | – | 11.7 nM | 7.63 nM | 28.37 | O=C1CC[C@H](N2Cc3cc(O[C@@H]4CN(Cc5ccc6nc([C@H]7CCOC7)ccc6c5)CC4(F)F)ccc3C2=O)C(=O)N1 [(3S)-3-(5-{[(3R)-4,4-difluoro-1-({2-[(3R)-oxolan-3-yl]quinolin-6-yl}methyl)pyrrolidin-3-yl]oxy}-1-oxo-2,3-dihydro-1H-isoindol-2-yl)piperidine-2,6-dione] | 8.319
– | – | 8.72 nM | 6.36 nM | 30.03 | O=C1CC[C@H](N2Cc3cc(O[C@@H]4CN(Cc5ccc6nc([C@@H]7CCOC7)ccc6c5)CC4(F)F)ccc3C2=O)C(=O)N1 [(3S)-3-(5-{[(3R)-4,4-difluoro-1-({2-[(3S)-oxolan-3-yl]quinolin-6-yl}methyl)pyrrolidin-3-yl]oxy}-1-oxo-2,3-dihydro-1H-isoindol-2-yl)piperidine-2,6-dione] | 8.017
– | – | 105 nM | 45.8 nM | 22.61 | O=C1CC[C@H](N2Cc3cc(O[C@@H]4CN(Cc5ccc6nc(C7CCOCC7)ncc6c5)CC4(F)F)ccc3C2=O)C(=O)N1 [(3S)-3-(5-{[(3R)-4,4-difluoro-1-{[2-(oxan-4-yl)quinazolin-6-yl]methyl}pyrrolidin-3-yl]oxy}-1-oxo-2,3-dihydro-1H-isoindol-2-yl)piperidine-2,6-dione] | 10.37
– | – | 2.76 nM | 2.17 nM | 26.77 | O=C1CC[C@H](N2Cc3cc(O[C@@H]4CN(Cc5cc6ccc(C7CCOCC7)cc6cn5)CC4(F)F)ccc3C2=O)C(=O)N1 [(3S)-3-(5-{[(3R)-4,4-difluoro-1-{[7-(oxan-4-yl)isoquinolin-3-yl]methyl}pyrrolidin-3-yl]oxy}-1-oxo-2,3-dihydro-1H-isoindol-2-yl)piperidine-2,6-dione] | 9.546
– | – | 32.3 nM | 15.5 nM | 29.31 | CC1(C)C[C@H](c2ncc3cc(CN4CC[C@H](Oc5ccc6c(c5)CN([C@H]5CCC(=O)NC5=O)C6=O)C4)ccc3n2)CCO1 [(3S)-3-(5-{[(3S)-1-({2-[(4R)-2,2-dimethyloxan-4-yl]quinazolin-6-yl}methyl)pyrrolidin-3-yl]oxy}-1-oxo-2,3-dihydro-1H-isoindol-2-yl)piperidine-2,6-dione] | 11.79
– | – | 1.85 nM | 1.83 nM | 26.67 | CC1(C)C[C@H](c2ccc3cc(CN4CC[C@H](Oc5ccc6c(c5)CN([C@H]5CCC(=O)NC5=O)C6=O)C4)ccc3n2)CCO1 [(3S)-3-(5-{[(3S)-1-({2-[(4R)-2,2-dimethyloxan-4-yl]quinolin-6-yl}methyl)pyrrolidin-3-yl]oxy}-1-oxo-2,3-dihydro-1H-isoindol-2-yl)piperidine-2,6-dione] | 11.19
– | – | 3.8 nM | 1.64 nM | 28.17 | CC1(C)C[C@@H](c2ccc3cc(CN4CC[C@H](Oc5ccc6c(c5)CN([C@H]5CCC(=O)NC5=O)C6=O)C4)cc(F)c3n2)CCO1 [(3S)-3-(5-{[(3S)-1-({2-[(4S)-2,2-dimethyloxan-4-yl]-8-fluoroquinolin-6-yl}methyl)pyrrolidin-3-yl]oxy}-1-oxo-2,3-dihydro-1H-isoindol-2-yl)piperidine-2,6-dione] | 9.621
– | – | 24.9 nM | 7.77 nM | 26.33 | CC1(C)C[C@@H](c2ncc3cc(CN4CC[C@H](Oc5ccc6c(c5)CN([C@H]5CCC(=O)NC5=O)C6=O)C4)ccc3n2)CCO1 [(3S)-3-(5-{[(3S)-1-({2-[(4S)-2,2-dimethyloxan-4-yl]quinazolin-6-yl}methyl)pyrrolidin-3-yl]oxy}-1-oxo-2,3-dihydro-1H-isoindol-2-yl)piperidine-2,6-dione] | 8.718
– | – | 1.77 nM | 1.34 nM | 24.69 | CC1(C)C[C@@H](c2ccc3cc(CN4CC[C@H](Oc5ccc6c(c5)CN([C@H]5CCC(=O)NC5=O)C6=O)C4)ccc3n2)CCO1 [(3S)-3-(5-{[(3S)-1-({2-[(4S)-2,2-dimethyloxan-4-yl]quinolin-6-yl}methyl)pyrrolidin-3-yl]oxy}-1-oxo-2,3-dihydro-1H-isoindol-2-yl)piperidine-2,6-dione] | 9.025
– | – | 1.09 nM | 0.593 nM | 24.44 | CC1(C)C[C@H](c2ccc3cc(CN4CC[C@H](Oc5ccc6c(c5)CN([C@H]5CCC(=O)NC5=O)C6=O)C4)ncc3c2)CCO1 [(3S)-3-(5-{[(3S)-1-({7-[(4R)-2,2-dimethyloxan-4-yl]isoquinolin-3-yl}methyl)pyrrolidin-3-yl]oxy}-1-oxo-2,3-dihydro-1H-isoindol-2-yl)piperidine-2,6-dione] | 9.482
– | – | 1.19 nM | 1.11 nM | 26.79 | CC1(C)C[C@@H](c2ccc3cc(CN4CC[C@H](Oc5ccc6c(c5)CN([C@H]5CCC(=O)NC5=O)C6=O)C4)ncc3c2)CCO1 [(3S)-3-(5-{[(3S)-1-({7-[(4S)-2,2-dimethyloxan-4-yl]isoquinolin-3-yl}methyl)pyrrolidin-3-yl]oxy}-1-oxo-2,3-dihydro-1H-isoindol-2-yl)piperidine-2,6-dione] | 9.866
– | – | 1.34 nM | 1.02 nM | 34.39 | O=C1CC[C@H](N2Cc3cc(O[C@H]4CCN(Cc5cc(F)c6nc([C@H]7CCOC7)ccc6c5)C4)ccc3C2=O)C(=O)N1 [(3S)-3-(5-{[(3S)-1-({8-fluoro-2-[(3R)-oxolan-3-yl]quinolin-6-yl}methyl)pyrrolidin-3-yl]oxy}-1-oxo-2,3-dihydro-1H-isoindol-2-yl)piperidine-2,6-dione] | 9.528
– | – | 1.73 nM | 1.45 nM | 34.19 | O=C1CC[C@H](N2Cc3cc(O[C@H]4CCN(Cc5cc(F)c6nc([C@@H]7CCOC7)ccc6c5)C4)ccc3C2=O)C(=O)N1 [(3S)-3-(5-{[(3S)-1-({8-fluoro-2-[(3S)-oxolan-3-yl]quinolin-6-yl}methyl)pyrrolidin-3-yl]oxy}-1-oxo-2,3-dihydro-1H-isoindol-2-yl)piperidine-2,6-dione] | 9.273
